Twelve compounds from US9839614B2, “Nanoparticle and polymer formulations for thyroid hormone analogs, antagonists, and formulations and uses thereof” (NANOPHARMACEUTICALS LLC, priority 2009, dated 2017) can be followed below.

Assay [1] relates to chick chorioallantoic membrane (CAM) blood vessel branching. Description: Chorioallantoic membrane (CAM) model of angiogenesis. The class given is in vivo. Conditions: for ANGIOGENESIS INDEX: n = 8 per group; for effect on angiogenesis, representative illustrations (FIG. 23): in vivo. The method, then:
In vivo neovascularization was examined by methods described previously. 9-12 Ten-day-old chick embryos were purchased from SPAFAS (Preston, Conn.) and incubated at 37° C. with 55% relative humidity. A hypodermic needle was used to make a small hole in the shell concealing the air sac, and a second hole was made on the broad side of the egg, directly over an avascular portion of the embryonic membrane that was identified by candling. A false air sac was created beneath the second hole by the application of negative pressure at the first hole, causing the CAM to separate from the shell. A window approximately 1.0 cm^2 was cut in the shell over the dropped CAM with a small-crafts grinding wheel (Dremel, division of Emerson Electric Co.), allowing direct access to the underlying CAM. […] Sterile disks of No. 1 filter paper (Whatman International) were pretreated with 3 mg/mL cortisone acetate and 1 mmol/L PTU and air dried under sterile conditions. Thyroid hormone, hormone analogs, FGF2 or control solvents, and inhibitors were then applied to the disks and the disks allowed to dry. The disks were then suspended in PBS and placed on growing CAMs. […] At 24 hours, the MAPK cascade inhibitor PD 98059 was also added to CAMs topically by means of the filter disks.
After incubation at 37° C. with 55% relative humidity for 3 days, the CAM tissue directly beneath each filter disk was resected from control and treated CAM samples. Tissues were washed 3× with PBS, placed in 35-mm Petri dishes (Nalge Nunc), and examined under an SV6 stereomicroscope (Zeiss) at X50 magnification. Digital images of CAM sections exposed to filters were collected using a 3-charge-coupled device color video camera system (Toshiba) and analyzed with Image-Pro software (Media Cybernetics). The number of vessel branch points contained in a circular region equal to the area of each filter disk were counted. One image was counted in each CAM preparation, and findings from 8 to 10 CAM preparations were analyzed for each treatment condition (thyroid hormone or analogs, FGF2, FGF2 antibody, PD 98059). In addition, each experiment was performed 3 times. The resulting angiogenesis index is the mean±SEM of new branch points.

For assay [2], the system named is matrigel plug angiogenesis. Description: Mouse matrigel model of angiogenesis (plug hemoglobin). The class given is in vivo, mice (C57BL/6NCr). The procedure:
Normal male mice (C57BL/6NCr) 6-8 weeks of age and weighing ˜20 g were purchased from Taconic farm. Animals were housed 4 per cage, in controlled conditions of temperature (20-24° C.); humidity (60-70%) and 12 hrs. light/dark cycle provided with food and water ad libitum. […] Aliquots of matrigel were placed into cold polypropylene tubes to prevent the matrigel from solidifying and the angiogenesis promoter added to matrigel with or without agonist. Mice were treated daily. Matrigel was subcutaneously injected as triple injection per animal at 100 μL/animal. At day 14 post plug implant all animals were killed in CO2 chamber and matrigel plugs were collected. Plug hemoglobin content was analyzed from three implants/mice (n=6 per group) to measure angiogenesis.
The matrigel plugs dissected from the mice were carefully stripped of any remaining peritoneum. The plugs were placed into 0.5 mL tube of ddH2O and homogenized for 5-10 min. […] Absorbance was read with a Microplate Manager ELISA reader at 540 nm. […] Hemoglobin concentration is a reflection of the number of blood vessels in the plugs.

[3] abbreviates: T4 + antagonist, each 10 μg/matrigel plug.
[4] abbreviates: FGF 100 ng + Tetrac or analog 10 μg/plug.

“And” between values parts separate entries of the source, which are not always exact repeats. Equal entries are not always repeated.

Turning to “FGF2: human recombinant FGF2, standard proangiogenic agent”, the “ANGIOGENESIS INDEX” value in assay [1] (1 uM) stood at 155 ± 9. The “Branch pts ± SEM” value in assay [1] (1.25 μg/ml) is on record as 137.9 ± 7.5. In assay [1] (FGF 1.25 μg/mL), the “Mean % of stimulation (comparing to PBS)” value stood at 78.1 ± 7.5% and the “Mean Branch points” value came to 130 ± 11. In addition, the “increase in angiogenesis / branch formation” value in assay [1] (FGF2 (1 μg/mL)) was 2.2 fold and 2 fold. For the same compound, the “Mean Branch points” value in assay [1] (FGF (1.25 μg/ml) alone) worked out at 130 ± 11. The “Hemoglobin (mg/mL) ± SEM” value in assay [2] (FGF 100 ng alone) was 2.4 ± 0.4 mg/mL.
As for `CCNC(Cc1cc(I)c(Oc2cc(I)c(O)c(I)c2)c(I)c1)C(=O)OCC` (stereo not shown) [T4 analog 12, Ethyl-2-(ethylamino)-3-[4-(4-hydroxy-3,5-diiodophenoxy)-3,5-diiodophenyl]propanoate], in assay [1] (FGF (1.25 μg/ml) + 12 (0.1 μM)), the “Mean Branch points” value turned out to be 46 ± 2. Further, the “Mean % of stimulation (comparing to PBS)” value in assay [1] (FGF (1.25 μg/ml) + 12 (0.1 μM), (inhibition)) is on record as −37.9 ± 4 (inhibition) %. In assay [1], the “effect on angiogenesis, representative illustrations (FIG. 23)” value was “anti-angiogenic”. In assay [2] (setting [3]), the “Hemoglobin (mg/mL) ± SEM” value was found to be 0.4 ± 0.1 mg/mL and the “Mean inhibition of angiogenesis (%)” value came to 89 ± 11%.
For `CC(C)(C)OC(=O)NC(Cc1cc(I)c(Oc2cc(I)c(OCC3CO3)c(I)c2)c(I)c1)C(=O)OCC1CO1` (stereo not shown) [T4 analog 14, Oxiran-2-ylmethyl-2-(tert-butoxycarbonylamino)-3-(4-(3,5-diiodo-4-(oxiran-2-ylmethoxy)phenoxy)-3,5-diiodophenyl)propanoate], the “Mean % of stimulation (comparing to PBS)” value in assay [1] (1 μM) worked out at 56.2 ± 7.5%. For the same compound, the “Mean Branch points” value in assay [1] (1 μM, mean ± SEM, n = 8) stood at 114 ± 11. Moreover, in assay [2] (10 μg/matrigel plug), the “Mean stimulation of angiogenesis (%)” value is listed as 0 ± 17%. Also, the “Hemoglobin (mg/mL) ± SEM” value in assay [2] (10 μg/matrigel plug, day 14, n = 6-7) worked out at 0.3 ± 0.1 mg/mL.
As to `CC(C)(C)OC(=O)Cc1cc(I)c(Oc2cc(I)c(O)c(I)c2)c(I)c1` [Tetrac analog 3, tert-Butyl-2-(4-(4-hydroxy-3,5-diiodophenoxy)-3,5-diiodophenyl)acetate], the “Mean inhibition of angiogenesis (%)” value in assay [2] (setting [4]) came out at 95 ± 14%.
As to `O=C(O)CCc1cc(I)c(Oc2ccc(O)cc2)c(I)c1` [DITPA, 3,5-diiodothyropropionic acid], the figures for the “ANGIOGENESIS INDEX” value in assay [1] (0.01 uM), in assay [1] (0.1 uM) and in assay [1] (0.2 mM) were 133.0 ± 11.6, 167.3 ± 12.7 and 117.9 ± 5.6, respectively.
Regarding `O=C(O)C(Cc1cc(I)c(Oc2cc(I)c(O)c(I)c2)c(I)c1)NC(c1ccccc1)(c1ccccc1)c1ccccc1` (stereo not shown) [PRIAB2], the “Branch pts ± SEM” value in assay [1] (0.1 μM) is 136.0 ± 18.1.
`CCNC(Cc1cc(I)c(Oc2cc(I)c(O)c(I)c2)c(I)c1)C(=O)O` (stereo not shown) [PRIAB12]: the “Branch pts ± SEM” value in assay [1] (0.1 μM) worked out at 121.7 ± 13.6.
For the compound `Cc1cc(OCC(=O)O)cc(C)c1Cc1ccc(O)c(C(C)C)c1` [GC-1, 3,5-dimethyl-4-(4′-hydroxy-3′-isopropylbenzyl)-phenoxy acetic acid], the figures for the “ANGIOGENESIS INDEX” value in assay [1] (0.01 uM) and in assay [1] (0.1 uM) were 169.6 ± 11.6 and 152.7 ± 9.0, respectively.
As to `O=C(Cc1cc(I)c(Oc2cc(I)c(O)c(I)c2)c(I)c1)NC1CCCCC1` [Tetrac analog 4, N-cyclohexyl-2-(4-(4-hydroxy-3,5-diiodophenoxy)-3,5-diiodophenyl)acetamide], the “Mean % Inhibition” value in assay [1] (FGF (1.25 μg/ml) + Tetrac or analog at 10 μg/plug) amounted to 15 ± 8%. Moreover, the “Mean Branch points” value in assay [1] (FGF (1.25 μg/ml) + Tetrac or analog at 10 μg/plug, n = 8) worked out at 121 ± 4. Also, the “Mean inhibition of angiogenesis (%)” value in assay [2] (setting [4]) was found to be 104 ± 12%. The “Hemoglobin (mg/mL) ± SEM” value in assay [2] (FGF 100 ng + Tetrac or analog 10 μg/plug, n = 7-14) worked out at 0.2 ± 0.1 mg/mL.
As to `CC(C)(C)OC(=O)NC(Cc1cc(I)c(Oc2cc(I)c(O)c(I)c2)c(I)c1)C(=O)O` (stereo not shown) [T4 analog 7, 2-[(Tert-butoxycarbonyl)amino]-3-[4-(4-hydroxy-3,5-diiodophenoxy)-3,5-diiodophenyl]propanoic acid], the “Branch pts ± SEM” value in assay [1] (0.1 μM, before conjugation) stood at 173 ± 9.9.
`CCNC(Cc1cc(I)c(Oc2cc(I)c(O)c(I)c2)c(I)c1)C(=O)O` (stereo not shown) [T4 analog 11, 2-(Ethylamino)-3-[4-(4-hydroxy-3,5-diiodophenoxy)-3,5-diiodophenyl]propanoic acid]: the “effect on angiogenesis, representative illustrations (FIG. 23)” value in assay [1] is given as “proangiogenesis effects”.
For the compound `CNC(Cc1cc(I)c(Oc2cc(I)c(O)c(I)c2)c(I)c1)C(=O)O` (stereo not shown) [PRIAB6], the “Branch pts ± SEM” value in assay [1] (0.1 μM) stood at 136.2 ± 12.4.
